# Patent US8263823B2, “Immunocompetent xenograft model” (Adimmu Institute Inc., priority 2008, dated 2012)
# Assays:
# TUBO cells = experiment: TUBO tumor size after aHER2, DOXORUBICIN or their combination; assay type: in vivo, mouse; conditions: DOXORUBICIN alone (5 or 15 mg/kg), intratumoral
# Experimental: (§1) Cultured cancer cells were trypsinized, washed with media, and injected s.c. on the back. Tumor size was determined at 3-4 day intervals. Tumor volumes were measured along three orthogonal axes (a, b, and c) and calculated as tumor volume=abc/2.
# Combination therapy of aHER2 and a chemotherapeutic could show the same reduction in efficacy due to the immunosuppressive action of the chemotherapeutic. To show this, 1×10^6 TUBO cells were injected into Balb/c mice. After the tumor was well-established, the mice were separated into groups subject to the following groups of treatments: (i) 80 μg mIgG only, (ii) 80 μg aHER2 only, (iii) 5 mg/kg DOXORUBICIN only, (iv) 15 mg/kg DOXORUBICIN only, (v) a combination of 80 μg aHER2 and 5 mg/kg DOXORUBICIN, and (vi) a combination of 80 μg aHER2 and 15 mg/kg DOXORUBICIN. The antibodies and chemotherapeutic were administered intratumorally, the time injections and tumor size measurements were taken at 19 and 26 days after tumor injection.
# [1] = test system: CD8+ 2C transgenic T-cells; conditions: chemotherapy (dacarbazine) alone, compared to the control mice
# Experimental: Lymph node (LN) cells and splenocytes (SP) were isolated from 2C TCR Tg mice. […] Cells were isolated from the inguinal LNs (DLNs), SP, or tumors at the time indicated. CFSE dilution was evaluated as described in Yu, at Id.
# In order to identify the effects of the chemotherapy on CD8+ T-cell priming, 5×10^5 B16-SIY melanoma cells were injected s.c. in the B6 mice. On day 17, 2×10^6 CFSE labeled naïve CD8+ 2C transgenic T-cells were adoptively transferred into the B16-SIY tumor bearing mice. The mice were treated locally with 20 Gy of radiation on day 0 following the transfer. 200 mg/kg dacarbazine i.p. was given two days after the adoptive transfer, and DLN and SP were harvested on day 21 to determine the CFSE dilution in the DLN and SP.
# 4T1 tumor cells [2] = experiment: 4T1 lung metastases colonogenic assay, radiation therapy with or without paclitaxel; assay type: in vivo, mouse
# Description: For surgical excision of primary 4T1 and B16-CCR7 tumors, mice were anesthetized, and tumors were resected with sterilized instruments. A colonogenic assay was used to evaluate metastases in 4T1 and B16-CCR7 tumors as described in B. A. Pulaski, S. Ostrand-Rosenberg, Curr Protoc Immunol Chapter 20, Unit 20 2 (May, 2001), incorporated herein by reference in its entirety. Lungs for 4T1 tumor or DLN for B16-CCR7 were collected, chopped and dissociated in DMEM supplemented with 10% FCS containing 1.5 mg/ml collagenase type D (Sigma-Aldrich) for 20 min in 37° C. shaking incubator. Single cell suspensions were plated at various dilutions in media supplemented with 10% FCS and selection drug. 4T1 is resistant to 6-thioguanine ([…]) and B16-CCR7 is resistant to G418 (0.7 mg/ml). Individual colonies representing micrometastases were counted after 5-10 days.
# 1×10^5 4T1 tumor cells were injected s.c. to the Balb/c mice, and the mice received 15 Gy of radiation on each days 12, 13, and 14.
# 4T1 tumor cells [3] = experiment: 4T1 breast tumor model, primary tumor growth, radiation therapy with or without paclitaxel; assay type: in vivo, mouse; conditions: paclitaxel 20 mg/kg i.p. on days 7 and 14 after radiation therapy (15 Gy x3), Balb/c mice
# Experimental: The mice were irradiated using an x-ray generator (PCM 1000; Pantak) at the doses indicated by each experiment. Each mouse was protected with a lead cover with only tumor exposed, allowing local irradiation. For systemic chemotherapy, tumor-bearing mice were injected i.p. with 20 mg/kg paclitaxel (Ameristat Pharmaceuticals) for 4T1 bearing mice and 200 mg/kg dacarbazine (Bedford Laboratories) for B16 bearing mice.
# as §1
# A 4T1 breast tumor model was used to show the results of the test on a different type of tumor. 1×10^5 4T1 tumor cells were injected and allowed to establish for 14 days. Balb/c control mice receive the breast cancer cells and no radiation, and other mice receive radiation therapy only, chemotherapy only, or a combination of radiation therapy followed by chemotherapy. The mice receiving radiation received a dose of 15 Gy on each of days 14, 15, and 16. On days 7 and 14 following radiation therapy, the mice receiving a combination of radiation therapy and chemotherapy received 20 mg/kg paclitaxel i.p.
smiles,measurement,setting,value
COc1cccc2c1C(=O)c1c(O)c3c(c(O)c1C2=O)C[C@@](O)(C(=O)CO)C[C@@H]3O[C@H]1C[C@H](N)[C@H](O)[C@H](C)O1 [DOXORUBICIN],tumor burden,TUBO cells,reduces tumor burden
CN(C)/N=N/c1[nH]cnc1C(N)=O [dacarbazine],proliferation of cytotoxic lymphocytes (CTL),[1],did not elicit proliferation of cytotoxic lymphocytes (CTL)
CC(=O)O[C@H]1C(=O)[C@@]2(C)[C@H]([C@H](OC(=O)c3ccccc3)[C@]3(O)C[C@H](OC(=O)[C@H](O)[C@@H](NC(=O)c4ccccc4)c4ccccc4)C(C)=C1C3(C)C)[C@]1(OC(C)=O)CO[C@@H]1C[C@@H]2O [paclitaxel],degree of metastases in the lungs,"4T1 tumor cells [2]; chemotherapy (paclitaxel) alone, compared to the control mice",little effect on the degree of metastases in the lungs
same,increase in tumor colonies in the lungs,"4T1 tumor cells [2]; paclitaxel 20 mg/kg i.p. on days 7 and 14 after radiation therapy (15 Gy x3), versus radiation therapy alone",100 fold
same,tumor regression,4T1 tumor cells [3],significantly hindered melanoma tumor regression and promoted tumor outgrowth
